Experimental data from the supplement of paper PMC10307832.

How the values were obtained:
Test in all cases: relative viability (nuclei count vs DMSO), 5 days (fraction); higher = more cells survive
[1] = compound: O=C(/C=C/c1ccccc1)NC(NC(=S)Nc1cccc2cccnc12)C(Cl)(Cl)Cl [Salubrinal] + CC(=O)c1c(C)c2cnc(Nc3ccc(N4CCNCC4)cn3)nc2n(C2CCCC2)c1=O [Palbociclib] (partner 0.5 µM)
Method in brief: (§1)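 After 5 days of treatment, lung cancer cells in 1536-well plates were fixed and stained in a single step (final 0.05% Triton X-100, 1% formaldehyde, 1 ug/ml Hoechst) and their nuclei counted on 4× images. Treatment had been applied by pin tool the day after seeding as one drug alone or as a fixed anchor-drug dose with five library-drug doses (not always all listed) in √10 steps. Relative viability is the nuclei count of treated wells divided by that of vehicle wells, and values are medians of duplicate plates.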

[2] = compound: Cc1ccc2nc(NCCN)c3ncc(C)n3c2c1 + CC(=O)c1c(C)c2cnc(Nc3ccc(N4CCNCC4)cn3)nc2n(C2CCCC2)c1=O [Palbociclib] (partner 0.5 µM)
Method in brief: as §1

[3] = compound: Cc1ccc2nc(NCCN)c3ncc(C)n3c2c1 + NC(=O)Nc1cc(-c2cccc(F)c2)sc1C(=O)N[C@H]1CCCNC1 [AZD7762] (partner 0.2 µM)
Method in brief: as §1

[4] = compound: Cc1ccc2nc(NCCN)c3ncc(C)n3c2c1 + CCNC(=O)c1noc(-c2cc(C(C)C)c(O)cc2O)c1-c1ccc(CN2CCOCC2)cc1 [Luminespib] (partner 0.01 µM)
Method in brief: as §1

| Cell Line | relative viability ([1]; first compound 0.08 µM) | relative viability ([1]; first compound 0.253 µM) | relative viability ([1]; first compound 0.8 µM) | relative viability ([1]; first compound 2.53 µM) | relative viability ([1]; first compound 8 µM) | relative viability ([2]; first compound 0.04 µM) | relative viability ([2]; first compound 0.1265 µM) | relative viability ([2]; first compound 0.4 µM) | relative viability ([2]; first compound 1.265 µM) | relative viability ([2]; first compound 4 µM) | relative viability ([3]; first compound 0.04 µM) | relative viability ([3]; first compound 0.1265 µM) | relative viability ([3]; first compound 0.4 µM) | relative viability ([3]; first compound 1.265 µM) | relative viability ([3]; first compound 4 µM) | relative viability ([4]; first compound 0.04 µM) | relative viability ([4]; first compound 0.1265 µM) | relative viability ([4]; first compound 0.4 µM) | relative viability ([4]; first compound 1.265 µM) | relative viability ([4]; first compound 4 µM) |
| --- | --- | --- | --- | --- | --- | --- | --- | --- | --- | --- | --- | --- | --- | --- | --- | --- | --- | --- | --- | --- |
| HOP-62 | 0.359 | 0.399 | 0.53 | 0.457 | 0.481 | 0.424 | 0.436 | 0.475 | 0.469 | 0.464 | 0.849 | 0.638 | 0.528 | 0.543 | 0.595 | 0.916 | 0.941 | 0.648 | 0.965 | 0.913 |
| CAL-12T | 0.459 | 0.42 | 0.676 | 0.436 | 0.328 | 0.499 | 0.47 | 0.39 | 0.376 | 0.48 | 0.657 | 0.649 | 0.557 | 0.576 | 0.481 | 0.642 | 0.522 | 0.715 | 0.534 | 0.214 |
| NCI-H1755 | 0.486 | 0.415 | 0.446 | 0.462 | 0.493 | 0.454 | 0.482 | 0.486 | 0.455 | 0.385 | 0.476 | 0.45 | 0.492 | 0.435 | 0.433 | 0.42 | 0.359 | 0.339 | 0.288 | 0.48 |
